Paper PMC8717366, “Synthesis and Pharmacological Characterization of Visabron, a Backbone Cyclic Peptide Dual Antagonist of α4β1 (VLA-4)/α9β1 Integrin for Therapy of Multiple Sclerosis” (JACS Au, 2021)

Test system: Jurkat cell migration across TNFα-stimulated HUVEC
Experiment: Jurkat transmigration across TNFα-stimulated HUVEC monolayer
Assay type: cell-based, human
Conditions: at 24 h; 1 mg/mL of antagonist; Figure 2B,C
Method: Figure 2 Inhibitory effects of visabron c (4–4) on adhesion (A) and transmigration (B, C) of Jurkat cells through the monolayer of TNFα-activated HUVEC. (A) HUVEC were cultured on 96 well plates to 90% confluence in EGM-2 complete media. TNF-α (10 ng/mL) was added to each well for 16 h. Jurkat cells were labeled with calcein-AM ([…]) by 1 h incubation at 37 °C. After three washes, Jurkat cells (1 × 10^5 cells per mL) were mixed with appropriate concentrations of visabron or 10 μM visabres (inset) in EGM-2 media without FBS and supplements (growth factors) and incubated for 15 min at room temperature. […] Cell cultures extracts were measured using the fluorescence plate reader. […] Chambers were incubated at 37 °C, and measurement of fluorescence was performed at the indicated time points using a fluorescence plate reader with a set up bottom measurement option and using FITC filters. […]
trans-Endothelial leukocyte migration was assessed as follows: HUVEC cells were plated onto collagen type IV (5 μg/mL) coated polycarbonate inserts (Transwell, Costar, Cambridge, MA; diameter, 6.5 mm; pore size, 8 μm for a 24-well plate) in serum-containing endothelial cell growth medium and allowed to grow to confluence over 72 h. […] The medium and all washes were pooled, and the fluorescence in each well was quantified with a SPECTRAFluor Plus plate reader at λex = 485 nm and λem = 530 nm. […]

Substance: natalizumab: clinical-grade monoclonal antibody anti-α4β1 produced by Biogen Co. [reference compound]
- Inhibition of Jurkat migration across TNFα-stimulated HUVEC: similar
